In paper PMC5238392, “Origin of anti-tumor activity of the cysteine-containing GO peptides and further optimization of their cytotoxic properties” (Scientific Reports, 2017):

Key:
[1] = test system: human lung carcinoma cell line A549; assay: MTS cell viability assay, A549; type: cell-based
Experimental: All experiments were conducted in duplicate or triplicate.

[2] = test system: HT-1080 cells; assay: Cell cycle phase distribution, HT-1080; type: cell-based, human; conditions: 24 h incubation with 5 μM
Experimental: The onset and the progression of the apoptosis are relatively fast, on the time scale of 1 h. […] Indeed, the cell cycle phase distribution remains unaffected by addition of the peptide. For example, in the untreated (control) HT-1080 sample the distribution between G0/G1, S, and G2/M phases is 52%, 23% and 26%, respectively. After 24 h incubation with 5 μM GO-203 this proportion is essentially unchanged at 50%, 24%, and 27%.
The adherent cells were rinsed with PBS, harvested using trypsin-EDTA solution and suspended in the growth medium. To analyze cell cycle phase distribution, 200 μg/ml of saponin (Fluka, USA), 250 μg/ml RNase A, and 50 μg/ml of propidium iodide (both Sigma-Aldrich, USA) were added to each sample tube, thus obtaining DNA stain buffer. After 1 h incubation at room temperature, the samples were analyzed by flow cytometry. To detect apoptosis by flow cytometry, CellEvent Caspase-3/7 Green Flow Cytometry Assay Kit (Thermo Fisher Scientific, USA) and Annexin-V FITC conjugate (BD Biosciences, USA) in combination with propidium iodide have been employed following the manufacturer’s protocols.
Figure S2. Cell cycle distribution for (A) HT-1080 cells treated with one-time dose of 5 μM GO-203 and (B) ZR-75-1 cells treated with one-time dose of 10 μM GO-203. The peptide concentrations have been chosen such as to induce significant cytotoxic effect without causing massive cell death. The data were taken 24 h after the application of the peptide.
Figure S3. H2DCFDA/DCFDA experiment to assess the level of ROS in (A) HT-1080 cells after 30 min incubation with 5 μM GO-203 and (B) ZR-75-1 cells after 30 min incubation with 10 μM GO-203. A statistically significant difference in the intensity of DCF fluorescence response is marked by an asterisk. […]

[3] = test system: HT-1080 cells; assay: carboxy-H2DCFDA time-dependent intracellular ROS, HT-1080; type: cell-based, human; conditions: suspended HT-1080; 5 μM
From the text: In broad terms, apoptosis is classified into two fundamental modes: mitochondrial pathway and death receptor pathway. In the former mechanism, apoptotic signals lead to a loss of mitochondrial membrane potential, termination of mitochondrial ATP synthesis, overproduction of reactive oxygen species (ROS) and their release into cytosol along with a number of pro-apoptotic proteins that are normally confined to the intermembrane space of the mitochondria. To determine whether this mechanism is relevant for GO-203-induced cell death, we have analyzed the time variation of mitochondrial membrane potential and cellular level of ROS over the time interval of 2 h following the addition of the peptide. […] The fluorescence was measured concurrently with the side angle light scatter.
To confirm this finding we have also used the carboxy-H2DCFDA probe of the general oxidative stress. […] The results of the ROS assay in HT-1080, where the intensity of fluorescence signal reflects the level of intracellular oxidants, are shown in Fig. 6B. […]
The cells were seeded into 35-mm Nunc culture dishes (Thermo Scientific, USA) at 1.2 × 10^5 cells per dish and allowed to attach for 24 h. […] After that GO-203 was added directly to the suspension and cell fluorescence was measured by flow cytometry at multiple time points during the following 2 hours. […] Cell fluorescence was then immediately measured by flow cytometry. […]

[4] = test system: ZR-75-1; assay: Rhodamine 123 mitochondrial membrane potential, ZR-75-1; type: cell-based, human; conditions: 30 min after application, same scheme as H2DCFDA/DCFDA measurements
Experimental: Finally, the same experimental scheme as described above for H2DCFDA/DCFDA measurements was also used with Rhodamine 123. […] The same observation has been made for ZR-75-1.
The cells were seeded into 35-mm Nunc culture dishes (Thermo Scientific, USA) at 1.2 × 10^5 cells per dish and allowed to attach for 24 h. To monitor intracellular ROS in a time-dependent manner, the cells were incubated for 30 min with 10 μM of carboxy-H2DCFDA (Invitrogen, USA), then harvested with trypsin-EDTA and suspended in a fresh medium. After that GO-203 was added directly to the suspension and cell fluorescence was measured by flow cytometry at multiple time points during the following 2 hours. The same procedure was used for mitochondria-specific fluorescent dye Rhodamine 123 (Thermo Fisher Scientific, USA), which was added to a concentration of 5 μM. The complementary side scatter measurements were conducted using 488 nm laser light. In another series of experiments, we have used the related indicator of oxidative stress, H2DCFDA (Invitrogen, USA). The experiment started by adding GO-203 to the cell growth medium; then 10 min later 5 μM of H2DCFDA has been added. After 20 min incubations with H2DCFDA, the cells were harvested with trypsin-EDTA and suspended in a fresh medium. Cell fluorescence was then immediately measured by flow cytometry. […]

[R]9CQCRRKN [GO-203, in clinical trials]
Cell viability (MTS) ([1]; 1 × 5: single dose of 5 μM, 96 h): essentially inconsequential | Cell viability (MTS) ([1]; 1 × 20: single dose of 20 μM, 96 h): substantially cytotoxic | Cell viability (MTS) ([1]; 4/5: four daily doses of 5 μM with exchanged growth medium, 96 h): inefficient | Cell viability (MTS) ([1]; 4 × 5: four daily doses of 5 μM without exchanging growth medium, OD 492 nm 96 h after first application): considerable damage | cells in S phase ([2]; control 23%): 24% | cells in G2/M phase ([2]; control 26%): 27% | cells in G0/G1 phase ([2]; control 52%): 50% | Time at which carboxy-H2DCFDA fluorescence (ROS) begins to diverge from control [3]: 80 to 90 min | Time at which elevated level of ROS is evident [3]: 120 min | Mitochondrial membrane potential (Rhodamine 123) [4]: fully maintained
